Source: ChEMBL document CHEMBL3217615, “Novel 3,5-bis(arylidiene)-4-piperidone based monocarbonyl analogs of curcumin: anticancer activity evaluation and mode of action study” (2014)

Tests used:
Format in all cases: functional
COLO 205 = experiment: Induction of apoptosis in human COLO205 cells assessed as caspase 9 activation at 10 uM by FLICA
SN12C = experiment: Growth inhibition of human SN12C cells assessed as cell growth at 10^-4 M after 48 hrs by sulforhodamine B assay; conditions: read-out: Activity
SR = experiment: Growth inhibition of human SR cells assessed as cell growth at 10^-7 M after 48 hrs by sulforhodamine B assay; conditions: read-out: Activity
MCF7 = experiment: Growth inhibition of human MCF7 cells assessed as cell growth at 10^-6 M after 48 hrs by sulforhodamine B assay; conditions: MCF7, 48 h, read-out: Activity
[1] = Growth inhibition of human OVCAR4 cells assessed as cell growth at 10^-8 M after 48 hrs by sulforhodamine B assay; conditions: OVCAR-4, 48 h; for growth at 0.01 µM: read-out: Activity; for TGI: read-out: pTGI
[2] = Growth inhibition of human SF295 cells assessed as cell growth at 10^-8 M after 48 hrs by sulforhodamine B assay; conditions: SF-295, 48 h; for growth at 0.01 µM: read-out: Activity; for TGI: read-out: pTGI (converted)
786-0 = experiment: Growth inhibition of human 786-0 cells assessed as cell growth at 10^-8 M after 48 hrs by sulforhodamine B assay; conditions: 786-0, 48 h; for growth at 0.01 µM: read-out: Activity; for TGI: read-out: pTGI (converted)
KM12 = experiment: Growth inhibition of human KM12 cells assessed as cell growth at 10^-6 M after 48 hrs by sulforhodamine B assay; conditions: KM12, 48 h, read-out: Activity
NCI-H23 = experiment: Growth inhibition of human NCI-H23 cells assessed as cell growth at 10^-6 M after 48 hrs by sulforhodamine B assay; conditions: NCI-H23, 48 h, read-out: Activity
SK-MEL-5 = experiment: Growth inhibition of human SK-MEL-5 cells after 48 hrs by sulforhodamine B assay; conditions: SK-MEL-5, 48 h; for CC50: read-out: LC50 (the source's name)
NCI-H522 = experiment: Growth inhibition of human NCI-H522 cells after 48 hrs by sulforhodamine B assay; conditions: NCI-H522, 48 h; for CC50: read-out: LC50 (the source's name)
TK-10 [3] = experiment: Growth inhibition of human TK10 cells after 48 hrs by sulforhodamine B assay; conditions: TK-10, 48 h
[4] = Growth inhibition of human Hs 578T cells assessed as cell growth at 10^-4 M after 48 hrs by sulforhodamine B assay; conditions: read-out: Activity
[5] = Growth inhibition of human Hs 578T cells assessed as cell growth at 10^-7 M after 48 hrs by sulforhodamine B assay; conditions: read-out: Activity
[6] = Growth inhibition of human Hs 578T cells assessed as cell growth at 10^-8 M after 48 hrs by sulforhodamine B assay
PC-3 = experiment: Growth inhibition of human PC3 cells assessed as cell growth at 10^-6 M after 48 hrs by sulforhodamine B assay; conditions: PC-3, 48 h, read-out: Activity
[7] = Growth inhibition of human Hs 578T cells assessed as cell growth at 10^-6 M after 48 hrs by sulforhodamine B assay; conditions: read-out: Activity
[8] = Growth inhibition of human Hs 578T cells after 48 hrs by sulforhodamine B assay
TK-10 [9] = experiment: Growth inhibition of human TK10 cells assessed as cell growth at 10^-6 M after 48 hrs by sulforhodamine B assay; conditions: TK-10, 48 h, read-out: Activity
CCRF-CEM = experiment: Growth inhibition of human CCRF-CEM cells assessed as cell growth at 10^-6 M after 48 hrs by sulforhodamine B assay; conditions: read-out: Activity
TK-10 [10] = experiment: Growth inhibition of human TK10 cells assessed as cell growth at 10^-8 M after 48 hrs by sulforhodamine B assay; conditions: TK-10, 48 h
HOP-62 = experiment: Growth inhibition of human HOP62 cells assessed as cell growth at 10^-4 M after 48 hrs by sulforhodamine B assay; conditions: HOP-62, 48 h, read-out: Activity
TK-10 [11] = experiment: Growth inhibition of human TK10 cells assessed as cell growth at 10^-7 M after 48 hrs by sulforhodamine B assay; conditions: TK-10, 48 h, read-out: Activity
TK-10 [12] = experiment: Growth inhibition of human TK10 cells assessed as cell growth at 10^-4 M after 48 hrs by sulforhodamine B assay; conditions: TK-10, 48 h, read-out: Activity
[13] = read-out: LC50 (the source's name)

## O=C1/C(=C/c2ccc(Cl)cc2Cl)CN(S(=O)(=O)c2ccccc2)C/C1=C\c1ccc(Cl)cc1Cl
COLO 205
  Activity: 22%
SN12C
  growth at 100 µM: -44%
SR
  growth at 0.1 µM: 70%
MCF7
  growth at 1 µM: 14%
[1]
  GI50: 282 nM
  LC50: > 100000 nM
  growth at 0.01 µM: 102%
  TGI: > 100000 nM
[2]
  GI50: 347 nM
  LC50: > 100000 nM
  growth at 0.01 µM: 91%
  TGI: 6610 nM
786-0
  GI50: 240 nM
  LC50: 1700 nM
  growth at 0.01 µM: 101%
  TGI: 550 nM
KM12
  growth at 1 µM: -30%
NCI-H23
  growth at 1 µM: 18%
SK-MEL-5
  TGI: > 100000 nM
  CC50: > 100000 nM
NCI-H522
  GI50: 854 nM
  TGI: 2990 nM
  CC50: 9730 nM

## Cc1ccc(S(=O)(=O)N2C/C(=C\c3cc(F)cc(F)c3)C(=O)/C(=C/c3cc(F)cc(F)c3)C2)cc1
COLO 205
  Activity: 40.5%
SN12C
  growth at 100 µM: -96%
TK-10 [3]
  GI50: 1030 nM
  TGI: 2960 nM
TK-10 [3]; [13]
  CC50: 8460 nM
[4]
  growth at 100 µM: -23%
SR
  growth at 0.1 µM: 14%
[5]
  growth at 0.1 µM: 93%
MCF7
  growth at 1 µM: 12%
[6]
  GI50: 398 nM
  LC50: > 100000 nM
[6]; read-out: Activity
  growth at 0.01 µM: 92%
[6]; read-out: pTGI (converted)
  TGI: 18600 nM
PC-3
  growth at 1 µM: -9%
[1]
  GI50: 437 nM
  LC50: 36300 nM
  growth at 0.01 µM: 100%
  TGI: 5250 nM
[7]
  growth at 1 µM: 22%
[8]
  GI50: 399 nM
  TGI: 18600 nM
[8]; [13]
  CC50: > 100000 nM
[2]
  GI50: 468 nM
  LC50: 15800 nM
  growth at 0.01 µM: 92%
  TGI: 2510 nM
786-0
  GI50: 589 nM
  LC50: 4900 nM
  growth at 0.01 µM: 104%
  TGI: 1910 nM
TK-10 [9]
  growth at 1 µM: 52%
CCRF-CEM
  growth at 1 µM: -1%
TK-10 [10]
  GI50: 1020 nM
  LC50 (50% lethal concentration): 8510 nM
TK-10 [10]; read-out: Activity
  growth at 0.01 µM: 103%
TK-10 [10]; read-out: pTGI (converted)
  TGI: 2950 nM
HOP-62
  growth at 100 µM: -93%
NCI-H23
  growth at 1 µM: 77%
SK-MEL-5
  GI50: 286 nM
  TGI: 1080 nM
  CC50: 3600 nM
TK-10 [11]
  growth at 0.1 µM: 106%
NCI-H522
  GI50: 316 nM
  TGI: 962 nM
  CC50: 3850 nM
TK-10 [12]
  growth at 100 µM: -85%
